This test concerns the target T1, recombinant human ALX receptor (Homo sapiens, UniProt P25090).
T1 construct: expressed in transfected cells; host or cells: HEK293 (HEK293-hALXR-Gα16)
T1 sequence (P25090 1-351): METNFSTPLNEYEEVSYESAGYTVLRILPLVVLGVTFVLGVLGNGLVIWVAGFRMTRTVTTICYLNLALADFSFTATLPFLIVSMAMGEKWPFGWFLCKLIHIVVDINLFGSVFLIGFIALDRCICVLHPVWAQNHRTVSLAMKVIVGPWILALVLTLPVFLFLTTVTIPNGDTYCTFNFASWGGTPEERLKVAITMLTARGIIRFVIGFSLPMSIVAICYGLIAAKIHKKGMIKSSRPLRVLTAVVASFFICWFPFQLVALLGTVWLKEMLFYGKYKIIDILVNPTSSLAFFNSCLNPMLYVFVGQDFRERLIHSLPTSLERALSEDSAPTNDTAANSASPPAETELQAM
Briefly: Intracellular calcium measurements (FLIPR), ALX receptor agonistic activity. It is filed as cell-based. As to conditions: HEK293-hALXR-Gα16 cells, Fluo-4 calcium signal, normalized to WKYMVm 10 nM. In outline:
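HEK293 cells co-expressing human ALX receptor and Gα16 were loaded with 1 μM Fluo-4 AM for 60 min at 37° C., then exposed to serially diluted compounds on FLIPR Tetra. Peak fluorescence above baseline (ex 488/em 540 nm) was normalized to 10 nM WKYMVm as high control.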
(In general: Calcium assays in cells follow changes in intracellular calcium, usually with a dye or a luminescent sensor.)

The values that follow come from patent US9663473B2 (Actelion Pharmaceuticals Ltd, priority 2013, dated 2017).

pEC50: −log10 of the molar value.

With `COc1ccc(C[C@@H](NC(=O)N[C@@H]2CCCC[C@@H]2O)c2nc3ccccc3[nH]2)cc1` (relative stereo) [Example 145, 1-((R)-1-(1H-Benzo[d]imidazol-2-yl)-2-(4-methoxyphenyl)ethyl)-3-((1R*,2S*)-2-hydroxycyclohexyl)urea], the pEC50 – broadly, the EC50 on a negative log10 scale, so that one unit is a factor of ten – is 7.21.
The value for `COC[C@H](Cc1ccccc1)NC(=O)N[C@H](Cc1ccc(OC)cc1)c1nc2ccccc2[nH]1` [Example 204, 1-((R)-1-(1H-Benzo[d]imidazol-2-yl)-2-(4-methoxyphenyl)ethyl)-3-((S)-1-methoxy-3-phenylpropan-2-yl)urea] was 8.30.
Take `COc1ccc(CC(NC(=O)N[C@H]2CC[C@H](O)CC2)c2nc3ccccc3[nH]2)cc1F` (single isomer, unassigned; ent-1) [Example 309, 1-(1-(1H-Benzo[d]imidazol-2-yl)-2-(3-fluoro-4-methoxyphenyl)ethyl)-3-(trans-4-hydroxycyclohexyl)urea (ent-1)]: the pEC50 was 8.43.
With `CC[C@H](NC(=O)N[C@H](Cc1ccc(OC)cc1)c1nc2ccccc2[nH]1)c1ccccc1` [Example 345, 1-((R)-1-(1H-Benzo[d]imidazol-2-yl)-2-(4-methoxyphenyl)ethyl)-3-((S)-1-phenylpropyl)urea] the figure was 6.90.
As for `CCC(CC)NC(=O)N[C@H](Cc1ccc(OC)cc1)c1nc2ccccc2[nH]1` [Example 97, (R)-1-(1-(1H-Benzo[d]imidazol-2-yl)-2-(4-methoxyphenyl)ethyl)-3-(pentan-3-yl)urea], the pEC50 was 6.91.
For `COc1ccc(C[C@@H](NC(=O)NC(C)(C)c2ccc(C)cc2)c2nc3ccccc3[nH]2)cc1` [Example 270, (R)-1-(1-(1H-Benzo[d]imidazol-2-yl)-2-(4-methoxyphenyl)ethyl)-3-(2-(p-tolyl)propan-2-yl)urea], the pEC50 was 6.65.
With `COc1ccc(C[C@@H](NC(=O)Nc2ccccc2OC)c2nc3ccccc3[nH]2)cc1` [Example 178, (R)-1-(1-(1H-Benzo[d]imidazol-2-yl)-2-(4-methoxyphenyl)ethyl)-3-(2-methoxyphenyl)urea], the negative logarithm of the EC50 (pEC50) is 6.16.
As to `Cc1ccc(C[C@@H](NC(=O)N[C@H]2CC[C@H](O)CC2)c2nc3ccccc3[nH]2)cc1` [Example 191, 1-((R)-1-(1H-Benzo[d]imidazol-2-yl)-2-(p-tolyl)ethyl)-3-(trans-4-hydroxycyclohexyl)urea], the pEC50 is 7.51.
With `COc1ccc(C[C@@H](NC(=O)NCCc2ccc(Cl)cc2)c2nc3ccccc3[nH]2)cc1` [Example 302, (R)-1-(1-(1H-Benzo[d]imidazol-2-yl)-2-(4-methoxyphenyl)ethyl)-3-(4-chlorophenethyl)urea] the figure was 6.89; with `COc1ccc(CC(NC(=O)N[C@H]2CC[C@H](O)CC2)c2nc3ccccc3[nH]2)c(F)c1F` (relative stereo) [Example 232, 1-(1-(1H-Benzo[d]imidazol-2-yl)-2-(2,3-difluoro-4-methoxyphenyl)ethyl)-3-(trans-4-hydroxycyclohexyl)urea], 8.59.
As to `COc1ccc(C[C@@H](NC(=O)NCCC2CCN(C(=O)OC(C)(C)C)CC2)c2nc3ccccc3[nH]2)cc1` [Example 155, (R)-tert-Butyl 4-(2-(3-(1-(1H-benzo[d]imidazol-2-yl)-2-(4-methoxyphenyl)ethyl)ureido)ethyl)piperidine-1-carboxylate], the pEC50 was 6.31.
The value for `COc1ccc(CC(NC(=O)N[C@H]2CC[C@H](O)CC2)c2nc3ccc(F)cc3[nH]2)c(F)c1` (relative stereo) [Example 244, 1-(1-(6-Fluoro-1H-benzo[d]imidazol-2-yl)-2-(2-fluoro-4-methoxyphenyl)ethyl)-3-(trans-4-hydroxycyclohexyl)urea] was 8.96.
Regarding `COc1ccc(C[C@@H](NC(=O)NCC(C)c2ccccc2)c2nc3ccccc3[nH]2)cc1` (stereo partly drawn) [Example 197, 1-((R)-1-(1H-Benzo[d]imidazol-2-yl)-2-(4-methoxyphenyl)ethyl)-3-(2-phenylpropyl)urea], the pEC50 is 7.30.
